According to ChEMBL document CHEMBL4382287, “Design, Synthesis, and Biological Evaluation of 6-Benzoxazole Benzimidazole Derivatives with Antihypertension Activities” (ACS Med Chem Lett, 2019):
Active and inactive are the calls of the source. No cut-off for these calls is given here.

Assays:
[1] = Displacement of [125I]-angiotensin-2 from AT1 receptor in Sprague-Dawley rat vascular smooth muscle cells after 150 mins by gamma counting method
[2] = test system: Rattus norvegicus; experiment: Antihypertensive activity in rat spontaneous hypertensive model assessed as decrease in maximal mean blood pressure at 5 to 10 mg/kg, po qd measured up to 24 hrs; format: functional, organism-based
[3] = test system: Rattus norvegicus; experiment: Antihypertensive activity in rat spontaneous hypertensive model assessed as decrease in maximal mean blood pressure at 10 mg/kg, po qd measured up to 24 hrs; format: functional
[4] = Toxicity in rat spontaneous hypertensive model assessed as effect on heart rate at 5 to 10 mg/kg, po qd measured up to 24 hrs; format: organism-based; conditions: in vivo

Row | SMILES | IC50 [1] | Ki [1] | Activity [2] | Activity [3] | Activity [4]
1 | CCCc1nc2c(C)cc(-c3nc4cccc(C)c4o3)cc2n1Cc1ccc2c(ccn2-c2ccccc2C(=O)O)c1 | 5.6 nM | 4 nM | Active | – | –
2 | CCCc1nc2c(C)cc(-c3nc4c(C)cccc4o3)cc2n1Cc1ccc2c(ccn2-c2ccccc2C(=O)O)c1 | 4.4 nM | 3.2 nM | Active | 41.91 mmHg | Non-Toxic
3 | CCc1nc2c(C)cc(-c3nc4c(C)cccc4o3)cc2n1Cc1cccc2c1ccn2-c1ccccc1C(=O)O | 10.3 nM | 7.5 nM | Active | – | –
4 | CCCCc1nc2c(C)cc(-c3nc4cccc(C)c4o3)cc2n1Cc1cccc2c1ccn2-c1ccccc1C(=O)O | 10.5 nM | 7.6 nM | Active | – | –
5 | CCCCc1nc(Cl)c(CO)n1Cc1ccc(-c2ccccc2-c2nnn[nH]2)cc1 [LOSARTAN] | 14.6 nM | 10.5 nM | – | 42.5 mmHg | –
6 | CCc1nc2c(C)cc(-c3nc4cccc(C)c4o3)cc2n1Cc1cccc2c1ccn2-c1ccccc1C(=O)O | 12.1 nM | 8.8 nM | Active | – | –
7 | CCc1nc2c(C)cc(-c3nc4c(C)cccc4o3)cc2n1Cc1ccc2c(ccn2-c2ccccc2C(=O)O)c1 | 12 nM | 8.7 nM | Active | – | –
8 | CCc1nc2c(C)cc(-c3nc4cccc(C)c4o3)cc2n1Cc1ccc2c(ccn2-c2ccccc2C(=O)O)c1 | 13.6 nM | 9.8 nM | Active | – | –
9 | CCCCc1nc2c(C)cc(-c3nc4c(C)cccc4o3)cc2n1Cc1ccc2c(ccn2-c2ccccc2C(=O)O)c1 | 10.7 nM | 7.7 nM | Active | – | –
10 | CCCc1nc2c(C)cc(-c3nc4c(C)cccc4o3)cc2n1Cc1cccc2c1ccn2-c1ccccc1C(=O)O | 4 nM | 2.9 nM | Active | 54.57 mmHg | Non-Toxic
11 | CCCCc1nc2c(C)cc(-c3nc4c(C)cccc4o3)cc2n1Cc1cccc2c1ccn2-c1ccccc1C(=O)O | 9.9 nM | 7.2 nM | Active | – | –
12 | CCCCc1nc2c(C)cc(-c3nc4cccc(C)c4o3)cc2n1Cc1ccc2c(ccn2-c2ccccc2C(=O)O)c1 | 9.7 nM | 7 nM | Active | – | –
13 | CCCc1nc2c(C)cc(-c3nc4cccc(C)c4o3)cc2n1Cc1cccc2c1ccn2-c1ccccc1C(=O)O | 5.3 nM | 3.8 nM | Active | – | –
